Source: PubChem BioAssay (NCI)
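Tested at 5 concentrations; 48 h exposure; 96-well plates; endpoints linearly interpolated, else capped at highest concentration. TGI marks complete inhibition of growth.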

What was measured:
Assay in all cases: DTP human tumour cell line panel, 48 h
CAKI-1 renal = test system: CAKI-1 renal
SW-620 colon = test system: SW-620 colon
SNB-19 CNS = test system: SNB-19 CNS
DU-145 prostate = test system: DU-145 prostate
SK-OV-3 ovarian = test system: SK-OV-3 ovarian
BT-549 breast = test system: BT-549 breast
OVCAR-5 ovarian = test system: OVCAR-5 ovarian
MCF7 breast = test system: MCF7 breast
OVCAR-3 ovarian = test system: OVCAR-3 ovarian
TK-10 renal = test system: TK-10 renal

| SMILES | TGI (CAKI-1 renal) | TGI (SW-620 colon) | TGI (SNB-19 CNS) | TGI (DU-145 prostate) | TGI (SK-OV-3 ovarian) | TGI (BT-549 breast) | TGI (OVCAR-5 ovarian) | TGI (MCF7 breast) | TGI (OVCAR-3 ovarian) | TGI (TK-10 renal) |
| --- | --- | --- | --- | --- | --- | --- | --- | --- | --- | --- |
| S=C(Nc1ccccn1)Nc1ccccc1Cl | > 100 µM | > 100 µM | > 31.6 µM | > 100 µM | > 100 µM | > 100 µM | > 100 µM | > 100 µM | > 100 µM | > 100 µM |
| NC1CC(=O)c2sccc21 (stereo not given) | > 100 µM | > 100 µM | > 100 µM | > 100 µM | > 100 µM | > 100 µM | > 100 µM | > 100 µM | > 100 µM | > 100 µM |
| CC[C@@]12C=CC(=S)N(CCSc3ccccc3)[C@@H]1c1c(n(S(=O)(=O)c3ccc(OC)cc3)c3ccccc13)CC2 | > 100 µM | > 100 µM | > 100 µM | > 100 µM | > 100 µM | > 100 µM | > 100 µM | > 100 µM | > 100 µM | > 100 µM |
| CC(=O)Oc1ccc(/C=C/C(=O)O[C@H]2CCCC[C@@H]2OC(=O)/C=C/c2ccc(OC(C)=O)c(OC(C)=O)c2)cc1OC(C)=O | > 100 µM | 10.6 µM | 27.6 µM | 33.7 µM | 27.4 µM | 36.9 µM | 28.4 µM | 42.9 µM | 95.7 µM | 63.2 µM |
| COc1ccc2cc(C(=O)NCCCNC(=O)c3ccc4cc(OC)ccc4c3)ccc2c1 | > 100 µM | > 100 µM | 30.6 µM | > 100 µM | > 65 µM | > 100 µM | > 100 µM | > 100 µM | > 100 µM | > 100 µM |
| c1ccc(C(CCN2CC3CCC(CC3)C2)c2ccccc2)cc1 | > 100 µM | > 100 µM | > 100 µM | > 100 µM | – | > 100 µM | 56.8 µM | 29 µM | 44.3 µM | 72.7 µM |
| O=C1c2ccccc2-c2nc(/C=C/c3ccccc3)cc3c2c1nc1ccccc13 | > 100 µM | 85.6 µM | > 100 µM | > 100 µM | > 100 µM | > 100 µM | > 100 µM | > 100 µM | 3.95 µM | > 100 µM |
| O=C1C(NCCN2CCOCC2)=C(Cl)C(=O)c2ncccc21 | – | 1.01 µM | 2.75 µM | 2.17 µM | 2.73 µM | 2.57 µM | 3.18 µM | 1.14 µM | 5.48 µM | 2.78 µM |
| NS(=O)(=O)c1nnc(NS(=O)(=O)c2ccccc2C(=O)O)s1 | > 100 µM | > 100 µM | > 100 µM | > 100 µM | > 100 µM | > 100 µM | > 100 µM | > 100 µM | > 100 µM | > 100 µM |
| CCOC(=O)Cn1c(=O)c2cc(-c3ccccc3)cc3c(Cl)nc4c(OC)c(OC)cc1c4c32 | > 100 µM | > 61.2 µM | 55 µM | > 61 µM | > 100 µM | 38.3 µM | > 100 µM | 22.7 µM | 60.1 µM | 99.4 µM |
| Oc1ccc(O)c(CNc2ccccc2)c1 | 23.1 µM | > 100 µM | 45.1 µM | 32.2 µM | 38.9 µM | 24.3 µM | 41.7 µM | 57.7 µM | 19.3 µM | 39.1 µM |
| O=[N+]([O-])c1ccc2c(c1)c(S(=O)(=O)O)cc1nonc12 | > 100 µM | > 100 µM | > 100 µM | – | > 100 µM | > 100 µM | > 100 µM | > 100 µM | > 100 µM | > 100 µM |
| CC(=O)O[C@H]1C[C@H]2C(=S)Nc3ccccc3C(=S)N2C1 | > 100 µM | > 100 µM | > 100 µM | > 100 µM | > 100 µM | > 100 µM | > 100 µM | > 100 µM | > 100 µM | > 100 µM |
| Oc1cccc(-c2cn3cc(C(F)(F)F)ccc3n2)c1 | > 100 µM | > 100 µM | > 100 µM | 72.5 µM | > 100 µM | > 100 µM | > 100 µM | > 100 µM | 86.7 µM | 73.3 µM |
| COC(=O)[C@H](Cc1ccccc1)NP(=O)(O)OCC1C=CC(n2cc(C)c(=O)[nH]c2=O)O1 (stereo not given in full) | > 100 µM | > 100 µM | > 100 µM | > 100 µM | > 100 µM | > 100 µM | > 100 µM | > 100 µM | > 100 µM | > 100 µM |
| O=C1CCCC2=C1CC1=C(CCCC1=O)N2c1ccccc1 | > 100 µM | > 100 µM | > 100 µM | – | > 100 µM | > 100 µM | > 100 µM | > 100 µM | > 100 µM | > 100 µM |
| Cc1nc2ccccc2n1Cc1nnc(N)o1 | – | > 100 µM | > 100 µM | > 100 µM | > 100 µM | > 100 µM | > 100 µM | > 100 µM | > 100 µM | > 100 µM |
| Cc1nnc(-n2c(O)cc(=O)n(-c3ccccc3)c2=S)nc1/C=C/c1ccc(N(C)C)cc1 | > 57 µM | > 52.9 µM | > 63 µM | > 90.1 µM | > 72 µM | > 70.7 µM | > 75.3 µM | > 40.9 µM | – | > 56.5 µM |
| c1ccc2c(c1)CC1COc3ccccc3C1O2 (stereo not given) | > 100 µM | > 100 µM | – | > 100 µM | > 100 µM | > 100 µM | > 100 µM | > 100 µM | > 100 µM | > 100 µM |
| Cn1c(=O)c2c(nc(Nc3ccc(Cl)cc3)n3c(=O)n(-c4ccccc4)c(=O)n23)n(C)c1=O | > 100 µM | > 100 µM | > 100 µM | > 100 µM | – | > 100 µM | > 100 µM | > 100 µM | > 100 µM | > 100 µM |
| O=C1ON=C2C3CC4CC12CC1(C3)C(=O)ON=C41 | > 100 µM | > 100 µM | > 100 µM | > 100 µM | – | > 100 µM | > 100 µM | > 100 µM | > 100 µM | – |
